We go through four compounds from paper PMC7834858 (Antiviral Research, 2020).

Series [1] has as its system human beta-coronavirus OC43–CoV. In words: OC43-CoV cytopathic effect antiviral assay in MRC-5 cells. The format is cell-based. To be noted: MRC5, 120 h, read-out: OC-43 MRC-5 Cells EC50. For orientation: Protection from cytopathic effect is a common read-out in antiviral testing.
For series [2] the test system is unchanged. Briefly: OC43-CoV cytopathic effect antiviral assay in HeLa cells. The format is cell-based.
For a further series, the target named is SARS-CoV-2 3CLpro (Severe acute respiratory syndrome coronavirus 2, UniProt P0DTD1). The format is biochemical.
Another series concerns SARS-CoV-2. Type of series: cell-based.
Another series relates to COVID-19. The following applies: COVID-19 hospitalized patients; ref Beigel et al., 2020; cited from earlier work.
[3] abbreviates: no reducing agent vs 1 mM GSH vs 1 mM DTT.

Like-named read-outs stand apart in the source and are kept apart here. Bounds are passed on as bounds.

In the case of `CC(C)=CC[C@@H](O)C1=CC(=O)c2c(O)ccc(O)c2C1=O` [Shikonin], the concentration giving a half-maximal response (EC50) (as a rule, the midpoint of the concentration-response curve) in series [1] was above 100 µM. The “Toxicity to Vero cells (in words)” value with VeroE6 cells is “toxic to Vero cells”. Besides, the “Antiviral activity against OC43 (in words)” value (shortened to “Antiviral activity”) in series [2] is “inactive”. Moreover, the “Effect of reducing conditions on inhibition potency” value on SARS-CoV-2 3CLpro (setting [3]) is given as “marked loss of inhibition in the presence of DTT or GSH”. For the same compound, the “Inhibition of SARS-CoV-2 3CLpro activity in SAMDI-MS assay (in words)” value (“Inhibition of SARS-CoV-2 3CLpro activity” below) at SARS-CoV-2 3CLpro (reducing conditions (DTT)) is on record as “failed to inhibit”; at SARS-CoV-2 3CLpro (reducing conditions (DTT), listed as shikonin), “did not inhibit”. For the same compound, the “Cytotoxicity (in words)” value in the series on HeLa cells was “cytotoxic”. For the same compound, the “Inhibition of SARS-CoV-2 replication (in words)” value in the series with SARS-CoV-2 is on record as “did not inhibit SARS-CoV-2 replication”.
Take `CCC(CC)COC(=O)[C@H](C)N[P@](=O)(OC[C@H]1O[C@@](C#N)(c2ccc3c(N)ncnn23)[C@H](O)[C@@H]1O)Oc1ccccc1` [Remdesivir]: the EC50 in series [1] was determined as 0.21 µM. Besides, in the series with COVID-19, the Effect on mortality entry is “no significant effect”.
`CCN(CC)C(=S)SSC(=S)N(CC)CC` [Disulfiram]: in series [1], the EC50 is above 100 µM. Besides, in series [2], the “Antiviral activity” value is “inactive”. For the same compound, on SARS-CoV-2 3CLpro (absence of reducing agent only), the “Concentrations at which SARS-CoV-2 3CLpro was inhibited” value is above 30 µM. For the same compound, the “Effect of reducing conditions on inhibition potency” value at SARS-CoV-2 3CLpro (setting [3]) was “impacted by the reducing condition”. At SARS-CoV-2 3CLpro (reducing conditions (DTT)), the “Inhibition of SARS-CoV-2 3CLpro activity” value is given as “did not inhibit”. Further, the “Inhibition of SARS-CoV-2 replication (in words)” value in the series on SARS-CoV-2 is given as “did not inhibit SARS-CoV-2 replication”.
`O=c1c2ccccc2[se]n1-c1ccccc1` [Ebselen]: the EC50 in series [1] was above 100 µM. Besides, the “Toxicity to Vero cells (in words)” value with VeroE6 cells is given as “toxic to Vero cells”. The “Antiviral activity” value in series [2] was “inactive”. Moreover, at SARS-CoV-2 3CLpro, the “Concentrations at which SARS-CoV-2 3CLpro was inhibited” value was above 30 µM, the “Effect of reducing conditions on inhibition potency” value is “impacted by the reducing condition” and the “Inhibition of SARS-CoV-2 3CLpro activity” value is given as “did not inhibit”. In addition, the “Cytotoxicity (in words)” value in the series on HeLa cells is on record as “cytotoxic”. Moreover, the “Inhibition of SARS-CoV-2 replication (in words)” value in the series with SARS-CoV-2 is reported as “did not inhibit SARS-CoV-2 replication”.
